For this experiment, the target named is T1, α-synuclein (Homo sapiens, UniProt P37840, A91C).
T1 construct: gene SNCA
Briefly: ASYN-CONA on-bead aggregation assay (confocal bead ring intensity, […] EtOH, […] h). The class given is biochemical.

The structures appear in SMILES notation. Where two headings read alike, the source gives them in different places.

Broadly, the IC50 is the concentration that gives 50% inhibition. `O=c1cc(-c2ccccc2)oc2cc(O)c(O)c(O)c12` [baicalein] returned an IC50 of 4.32 ± 0.6 µM.

`COc1cc(/C=C/C(=O)CC(=O)/C=C/c2ccc(O)c(OC)c2)ccc1O` [curcumin]: the IC50 (read-out: IC50) came out at 2.76 ± 0.89 µM. In the case of `CO[C@H]1/C=C/O[C@@]2(C)Oc3c(C)c(O)c4c(O)c(c(/C=N/N5CCN(C)CC5)c(O)c4c3C2=O)NC(=O)/C(C)=C\C=C\[C@H](C)[C@H](O)[C@@H](C)[C@@H](O)[C@@H](C)[C@H](OC(C)=O)[C@@H]1C` [rifampicin], the IC50 (read-out: IC50) was determined as 502 ± 360 µM.
